Reference: patent US8211606B2, “Coloring compound, yellow toner, sheet for heat-sensitive transfer recording, and ink” (Canon Kabushiki Kaisha, priority 2007, dated 2012)

Legend:
[1] = Solubility check: solubility of coloring compound in chloroform at room temperature; type: physicochemical
Protocol: A solubility test was performed to measure the solubility of a coloring compound in chloroform at room temperature. The solubility was evaluated as described below.
A: 5% or more solubility in chloroform
B: 1% or more and less than 5% solubility in chloroform
C: less than 1% solubility in chloroform
A solubility of 1% or more in chloroform was determined to indicate high compatibility with resin.

[2] = Light resistance evaluation of coloring compound on paper, Sun Tester irradiation (color difference ΔE); type: physicochemical; conditions: 765 w/m^2, 50° C., irradiation time 20 hours, on CLC color copy paper
Protocol: A coloring compound was dissolved in tetrahydrofuran/cyclohexanone (=1/1 (v/v)) to prepare a 0.04 mol/L solution, which was then filtered with a filter (Φ0.2 μm). The prepared coloring compound solution was applied on CLC color copy paper (manufactured by Canon Inc.) by a bar coat method (Bar No. 3) and air-dried overnight. The test paper was then subjected to an irradiation experiment using Sun Tester (XF-180CPS, manufactured by Shimadzu Corporation) under the conditions of an illuminance of 765 w/m^2, a temperature of 50° C. and an irradiation time of 20 hours. The test paper before and after irradiation was analyzed by means of SpectroLino (from Gretag Machbeth). Optical density and chromaticity (L*, a*, b*) were determined on the basis of the L*a*b* color system. Color difference (ΔE) was calculated according to the following equation on the basis of measurements of the color characteristics.
The evaluation was performed as below.
A: The ΔE value is less than 10.
B: The ΔE value is 10 or more and less than 20.
C: The ΔE value is 20 or more.
The ΔE value of less than 20 was determined to indicate good light resistance.

Light Resistance [2]	SMILES	Solubility [1]
C (The ΔE value is 20 or more.)	CCn1c(O)c(/N=N/c2ccccc2[N+](=O)[O-])c(C)c(C(N)=O)c1=O [(2), reference compound]	C (less than 1% solubility in chloroform)
A (The ΔE value is less than 10.)	CCCCC(CC)Cn1c(O)c(N=Nc2c(Br)cc(C(F)(F)F)cc2[N+](=O)[O-])c(C)c(C(N)=O)c1=O (stereo not shown) [(10)]	B (1% or more and less than 5% solubility in chloroform)
A (The ΔE value is less than 10.)	CCCCC(CC)Cn1c(O)c(N=Nc2ccc(C#N)cc2[N+](=O)[O-])c(C)c(C(N)=O)c1=O (stereo not shown) [(11)]	A (5% or more solubility in chloroform)
A (The ΔE value is less than 10.)	CCCCC(CC)Cn1c(O)c(N=Nc2ccc(C(F)(F)F)cc2[N+](=O)[O-])c(C)c(C(N)=O)c1=O (stereo not shown) [(12)]	A (5% or more solubility in chloroform)
A (The ΔE value is less than 10.)	CCCCC(C)(CC)NC(=O)c1c(C)c(N=Nc2ccc(C(F)(F)F)cc2[N+](=O)[O-])c(O)[nH]c1=O (stereo not shown) [(14)]	B (1% or more and less than 5% solubility in chloroform)
A (The ΔE value is less than 10.)	Cc1c(N=Nc2ccccc2[N+](=O)[O-])c(O)n(-c2ccccc2)c(=O)c1C(N)=O [(15)]	B (1% or more and less than 5% solubility in chloroform)
A (The ΔE value is less than 10.)	Cc1c(N=Nc2ccccc2[N+](=O)[O-])c(O)n(Cc2ccccc2)c(=O)c1C(N)=O [(16)]	B (1% or more and less than 5% solubility in chloroform)
C (The ΔE value is 20 or more.)	CCCCC(CC)Cn1c(O)c(/N=N/c2ccccc2[N+](=O)[O-])c(C)c(C#N)c1=O (stereo not shown) [Comparative Compound (1), reference compound]	B (1% or more and less than 5% solubility in chloroform)
A (The ΔE value is less than 10.)	CCCCC(CC)Cn1c(O)c(/N=N/c2ccccc2[N+](=O)[O-])c(C)c(C(N)=O)c1=O (stereo not shown) [Compound (4)]	B (1% or more and less than 5% solubility in chloroform)
A (The ΔE value is less than 10.)	CCCCC(CC)Cn1c(O)c(/N=N/c2ccc(C(F)(F)F)cc2[N+](=O)[O-])c(C)c(C(=O)NC(C)(C)C)c1=O (stereo not shown) [Compound (5)]	A (5% or more solubility in chloroform)
A (The ΔE value is less than 10.)	CCCCC(CC)Cn1c(O)c(/N=N/c2ccc(F)cc2[N+](=O)[O-])c(C)c(C(N)=O)c1=O (stereo not shown) [Compound (6)]	B (1% or more and less than 5% solubility in chloroform)

SMILES	Light Resistance [2]	Solubility [1]
CCCCC(CC)Cn1c(O)c(N=Nc2cc(F)c(F)cc2[N+](=O)[O-])c(C)c(C(N)=O)c1=O (stereo not shown) [(7)]	B (The ΔE value is 10 or more and less than 20.)	A (5% or more solubility in chloroform)
CCCCC(CC)Cn1c(O)c(N=Nc2c([N+](=O)[O-])cc(F)c(F)c2F)c(C)c(C(N)=O)c1=O (stereo not shown) [(8)]	B (The ΔE value is 10 or more and less than 20.)	A (5% or more solubility in chloroform)
CCCCC(CC)Cn1c(O)c(N=Nc2c([N+](=O)[O-])cc(C(F)(F)F)cc2[N+](=O)[O-])c(C)c(C(N)=O)c1=O (stereo not shown) [(9)]	B (The ΔE value is 10 or more and less than 20.)	B (1% or more and less than 5% solubility in chloroform)
CCn1c(O)c(N=Nc2ccc(C(F)(F)F)cc2[N+](=O)[O-])c(-c2ccccc2)c(C(=O)NC(C)(C)C)c1=O [(13)]	B (The ΔE value is 10 or more and less than 20.)	A (5% or more solubility in chloroform)
CCCCC(CC)Cn1c(O)c(N=Nc2ccccc2[N+](=O)[O-])c(C)c(C(=O)NC2CCCC2)c1=O (stereo not shown) [(17)]	B (The ΔE value is 10 or more and less than 20.)	A (5% or more solubility in chloroform)
CCCCC(CC)Cn1c(O)c(N=Nc2ccc(C(F)(F)F)cc2[N+](=O)[O-])c(C)c(C(=O)NCc2ccccc2)c1=O (stereo not shown) [(18)]	B (The ΔE value is 10 or more and less than 20.)	A (5% or more solubility in chloroform)
